Patent US9795548B2, “Oral care compositions” (Colgate-Palmolive Company, priority 2012, dated 2017)
Values after ≈ are worked out from the molar mass of the structure shown.

What was measured:
Assay type in all cases: cell-based
[1] = tested on: PGE2; test: Mat Tek PGE2 tissue model, anti-inflammatory activity; settings: dentifrice slurry 1:4 in PBS, base dentifrice with 1% active; 2 minutes treatment; IL-β about 10 ng/ml
Experimental: Anti-inflammatory activity of IPM is evaluated using the Mat Tek PGE2 tissue model.
One (1) mL of tissue culture media (supplied by MatTek) is added to each well of a 6-well plate (×4). The plate is incubated overnight (37° C., 5% CO2). Treatment solutions comprising the dentifrice slurries are prepared, wherein the base dentifrice contains 1% isopropyl magnolol. Slurries of the dentifrices are prepared in a 1:4 ratio by weight of dentifrice:phosphate buffered saline (PBS). Slurries are placed on a stir plate for a minimum of 30 minutes to allow the solution to fully homogenize.
The tissue media is prepared by adding IL-β from a frozen stock solution to the tissue culture media. The final concentration of IL-β in the media is about 10 ng/ml.
1 ml of tissue culture media containing IL-β is added to each well of a 6-well plate (×4). […] of treatment solution is then added to the surface of the tissue and let sit for 2 minutes. The treatment solution is removed by aspiration.
The tissue is then washed using about 200 μl of PBS. PBS is then removed by aspiration, and the process is repeated for a total of 3 washes.
Tissue is then transferred the original 6-well plates to new 6-well plates with media containing IL-β. The plates are incubated (37° C., 5% CO2) for between 7 and 24 hours, depending on the active or dentifrice being tested.
The used media from the old 6-well plates is pipetted into a single 24-well plate, for use as a baseline sample. The plates are removed from the incubator and the used media is pipetted from the 6-well plates into a single 24-well plate, for use as a reference sample for the designated time point. The results of this assay are described in Table 3 (below).

[2] = tested on: Actinomyces viscosus; test: Minimum Inhibitory Concentration (MIC), two-fold dilutions in trypticase soy broth; settings: 18-24 hours of incubation
Experimental: (§1) Minimum Inhibitory Concentration (MIC) values are determined generally according to the following method: A series of two-fold dilutions in trypticase soy broth (Catalog No. 211768; Becton Dickinson, Franklin Lakes N.J.) are prepared in a 96 well plate and a constant amount of bacteria is then added to each well. After 18-24 hours of incubation, bacterial growth is measured with a Spectrophotometric Micro-plate Reader (Powerwave 5×, BioTEK, Winooski Vt.) and the MIC values are determined.
(§2) Table 4 (below) describes the antibacterial efficacy of isopropyl magnolol against various oral pathogens.

[3] = tested on: Fusobcaterium nucleatum; test: as above
Experimental: as §1, §2

[4] = tested on: Streptococcus sanguis; test: as above; settings: 18-24 hours of incubation
Experimental: as §1, §2

[5] = tested on: Streptoccus mutans; test: as above
Experimental: as §1, §2

[6] = tested on: A. actinomycetemcomitans; test: as above; settings: Aggregatibacter actinomycetemcomitans, 18-24 hours of incubation
Experimental: as §1, §2

Compound | PGE2 reduction (%) [1] [%] | MIC [2] [µg/mL] | MIC [3] [µg/mL] | MIC [4] [µg/mL] | MIC [5] [µg/mL] | MIC [6] [µg/mL]
CCCCc1ccc(O)c(-c2cc(CCCC)ccc2O)c1 [Butyl magnolol] | 29.98 |  |  |  |  | 
CC(C)c1ccc(O)c(-c2cc(C(C)C)ccc2O)c1 [Isopropyl magnolol, 5,5′-diisopropyl-2,2′-dihydroxy biphenol] | 90.88 | 3.9 (≈ 14.4 µM) | 0.97 (≈ 3.59 µM) | 1.95 (≈ 7.21 µM) | 3.9 (≈ 14.4 µM) | 3.9 (≈ 14.4 µM)
C=CCc1ccc(O)c(-c2cc(CC=C)ccc2O)c1 [Magnolol, 5,5′-Diallyl-biphenyl-2,2′-diol] | 88.23 | 15.6 (≈ 58.6 µM) | 7.8 (≈ 29.3 µM) | 15.6 (≈ 58.6 µM) | 15.6 (≈ 58.6 µM) | 15.6 (≈ 58.6 µM)
